How the values were obtained:
Assay type in all cases: biochemical
[1] = target: SIK1 (Homo sapiens, UniProt P57059); test: Enzymatic activity assay SIK1, RapidFire mass spectrometry (phosphorylation of CHK-peptide); conditions: RapidFire MS, inhibition of SIK1; read-out: SIK1 RF IC50
In short: (§1)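 Compounds (12-point, 3-fold, generally 30 μM to 170 pM) were pre-incubated 30 min at ambient temperature with SIK1 (5 nM), SIK2 (0.5 nM) or SIK3 (1.5 nM) in HEPES pH 7.0/magnesium acetate buffer. CHK-peptide (10 μM solution) and ATP (100 μM solution) were then added for 45 min before formic acid quench.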

[2] = target: SIK2 (Homo sapiens, UniProt Q9H0K1); test: Enzymatic activity assay SIK2, RapidFire mass spectrometry (phosphorylation of CHK-peptide); conditions: RapidFire MS, inhibition of SIK2; read-out: SIK2 RF IC50
In short: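 SIK2 (0.5 nM) in pH 7.0 HEPES buffer with 10 mM Mg acetate phosphorylates CHK-peptide (10 μM solution) with 100 μM ATP solution, 45 min ambient, then formic acid quench.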

[3] = target: SIK3 (Homo sapiens, UniProt Q9Y2K2); test: Enzymatic activity assay SIK3, RapidFire mass spectrometry (phosphorylation of CHK-peptide); conditions: RapidFire MS, inhibition of SIK3; read-out: SIK3 RF IC50
In short: as §1

Chain of SIK1 (P57059 whole entry): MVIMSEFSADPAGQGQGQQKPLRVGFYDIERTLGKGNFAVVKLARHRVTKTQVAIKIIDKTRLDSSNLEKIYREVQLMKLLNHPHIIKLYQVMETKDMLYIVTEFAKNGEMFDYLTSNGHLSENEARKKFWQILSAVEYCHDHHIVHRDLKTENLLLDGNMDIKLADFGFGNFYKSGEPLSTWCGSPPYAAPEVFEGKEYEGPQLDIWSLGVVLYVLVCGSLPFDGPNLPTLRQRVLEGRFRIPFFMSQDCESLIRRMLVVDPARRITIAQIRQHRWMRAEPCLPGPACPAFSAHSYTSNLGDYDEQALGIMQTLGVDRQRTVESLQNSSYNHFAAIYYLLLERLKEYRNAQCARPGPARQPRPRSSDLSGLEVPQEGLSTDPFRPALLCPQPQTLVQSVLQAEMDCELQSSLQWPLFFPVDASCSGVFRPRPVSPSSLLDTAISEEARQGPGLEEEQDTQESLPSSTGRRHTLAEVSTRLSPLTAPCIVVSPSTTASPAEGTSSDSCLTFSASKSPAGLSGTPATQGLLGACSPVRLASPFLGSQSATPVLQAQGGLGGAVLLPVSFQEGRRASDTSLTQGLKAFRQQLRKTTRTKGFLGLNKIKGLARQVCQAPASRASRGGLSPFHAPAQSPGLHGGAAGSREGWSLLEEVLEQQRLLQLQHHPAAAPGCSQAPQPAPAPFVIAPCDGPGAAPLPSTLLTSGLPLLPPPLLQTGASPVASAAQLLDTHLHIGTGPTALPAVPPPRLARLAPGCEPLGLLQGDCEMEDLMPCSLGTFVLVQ
Chain of SIK3 (Q9Y2K2 whole entry): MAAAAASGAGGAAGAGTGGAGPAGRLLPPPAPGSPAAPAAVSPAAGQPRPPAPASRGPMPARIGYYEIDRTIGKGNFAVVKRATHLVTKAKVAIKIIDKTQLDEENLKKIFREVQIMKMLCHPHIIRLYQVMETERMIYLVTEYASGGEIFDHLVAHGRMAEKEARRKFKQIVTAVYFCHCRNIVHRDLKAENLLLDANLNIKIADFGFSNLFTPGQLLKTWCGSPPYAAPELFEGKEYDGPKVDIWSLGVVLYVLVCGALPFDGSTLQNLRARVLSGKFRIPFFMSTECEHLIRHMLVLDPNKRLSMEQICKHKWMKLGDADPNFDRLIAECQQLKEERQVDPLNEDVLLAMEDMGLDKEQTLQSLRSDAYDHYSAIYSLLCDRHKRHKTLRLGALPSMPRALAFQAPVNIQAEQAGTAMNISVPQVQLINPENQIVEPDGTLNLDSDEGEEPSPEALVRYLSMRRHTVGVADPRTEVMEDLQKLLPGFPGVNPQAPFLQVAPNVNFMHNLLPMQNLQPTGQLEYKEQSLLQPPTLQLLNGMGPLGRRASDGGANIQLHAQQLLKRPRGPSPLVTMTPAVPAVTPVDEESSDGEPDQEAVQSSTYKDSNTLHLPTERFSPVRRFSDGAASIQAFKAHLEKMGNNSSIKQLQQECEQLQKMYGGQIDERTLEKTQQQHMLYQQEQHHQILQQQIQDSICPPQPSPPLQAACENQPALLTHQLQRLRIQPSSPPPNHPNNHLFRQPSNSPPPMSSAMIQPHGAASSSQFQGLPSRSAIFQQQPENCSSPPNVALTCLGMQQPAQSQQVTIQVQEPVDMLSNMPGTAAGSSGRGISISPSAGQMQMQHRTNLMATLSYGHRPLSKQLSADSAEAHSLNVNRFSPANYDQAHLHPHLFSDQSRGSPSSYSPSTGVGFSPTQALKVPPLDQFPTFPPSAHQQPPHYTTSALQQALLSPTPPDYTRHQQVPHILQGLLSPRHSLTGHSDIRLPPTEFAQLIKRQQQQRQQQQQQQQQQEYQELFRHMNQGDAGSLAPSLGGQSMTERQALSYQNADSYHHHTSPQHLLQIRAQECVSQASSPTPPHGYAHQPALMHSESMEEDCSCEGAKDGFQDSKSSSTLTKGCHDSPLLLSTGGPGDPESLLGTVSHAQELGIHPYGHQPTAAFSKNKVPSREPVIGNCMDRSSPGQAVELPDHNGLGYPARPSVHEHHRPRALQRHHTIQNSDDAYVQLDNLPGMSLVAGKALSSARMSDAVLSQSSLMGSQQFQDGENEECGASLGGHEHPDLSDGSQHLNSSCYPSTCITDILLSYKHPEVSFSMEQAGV
Chain of SIK2 (Q9H0K1 whole entry): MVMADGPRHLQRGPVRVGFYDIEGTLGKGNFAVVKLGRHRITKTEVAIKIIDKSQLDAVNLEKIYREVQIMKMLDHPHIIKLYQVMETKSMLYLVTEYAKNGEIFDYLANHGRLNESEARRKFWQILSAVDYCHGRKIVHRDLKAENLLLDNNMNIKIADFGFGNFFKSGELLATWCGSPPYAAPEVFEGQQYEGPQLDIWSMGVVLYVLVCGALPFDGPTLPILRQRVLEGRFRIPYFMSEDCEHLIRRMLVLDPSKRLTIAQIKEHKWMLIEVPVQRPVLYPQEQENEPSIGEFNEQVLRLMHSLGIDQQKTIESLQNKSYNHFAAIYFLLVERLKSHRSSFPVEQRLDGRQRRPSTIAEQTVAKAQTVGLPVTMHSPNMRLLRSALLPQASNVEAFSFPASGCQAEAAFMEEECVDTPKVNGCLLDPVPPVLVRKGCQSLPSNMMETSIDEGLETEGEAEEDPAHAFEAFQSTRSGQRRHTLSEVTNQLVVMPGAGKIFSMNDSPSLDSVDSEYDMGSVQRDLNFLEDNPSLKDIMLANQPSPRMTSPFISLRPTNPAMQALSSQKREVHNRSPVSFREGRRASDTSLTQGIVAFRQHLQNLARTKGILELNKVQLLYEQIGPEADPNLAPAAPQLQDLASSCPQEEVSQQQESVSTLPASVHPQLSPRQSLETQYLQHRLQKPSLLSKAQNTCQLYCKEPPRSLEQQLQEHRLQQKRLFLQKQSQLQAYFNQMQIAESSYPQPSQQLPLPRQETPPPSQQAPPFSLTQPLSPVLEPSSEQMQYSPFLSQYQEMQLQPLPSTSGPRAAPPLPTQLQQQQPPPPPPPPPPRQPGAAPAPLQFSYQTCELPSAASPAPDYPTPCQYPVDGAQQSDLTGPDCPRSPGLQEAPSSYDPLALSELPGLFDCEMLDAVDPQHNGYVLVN

Compound	IC50 [1] [nM]	IC50 [2] [nM]	IC50 [3] [nM]
COc1cc(-c2nc(-n3cnc4cc(Nc5ccc(C)nn5)ccc43)ccc2C(C)O)c(C)cn1 (stereo not drawn) [Example 285, 1-[2-(2-methoxy-5-methyl-4-pyridyl)-6-[5-[(6-methylpyridazin-3-yl)amino]benzimidazol-1-yl]-3-pyridyl]ethanol]	497	11.6	6.4
Cc1cc(C#N)nn1-c1nc(-n2cnc3cc(OC4CCN(C5COC5)CC4)ccc32)ccc1C(C)O (stereo not drawn) [Example 113, 1-[3-(1-Hydroxyethyl)-6-[5-[[1-(oxetan-3-yl)-4-piperidyl]oxy]benzimidazol-1-yl]-2-pyridyl]-5-methyl-pyrazole-3-carbonitrile]	319	76	34.1
Cc1cc(C(=O)N(C)C)c(Nc2cc3ncn(-c4ccc([C@H](C)O)c(-n5nc(C(F)F)cc5C)n4)c3cc2F)nn1 [Example 345, 3-[[1-[6-[3-(difluoromethyl)-5-methyl-pyrazol-1-yl]-5-[(1~{S})-1-hydroxyethyl]-2-pyridyl]-6-fluoro-benzimidazol-5-yl]amino]-~{N},~{N},6-trimethyl-pyridazine-4-carboxamide]	17200	48.9	60.2
Cc1ccc(Nc2ccc3c(c2)ncn3-c2ccc([C@H](C)O)c(-c3cn(CC(F)(F)F)nc3C)n2)nn1 [Example 252, (1S)-1-[6-[5-[(6-Methylpyridazin-3-yl)amino]benzimidazol-1-yl]-2-[3-methyl-1-(2,2,2-trifluoroethyl)pyrazol-4-yl]-3-pyridyl]ethanol]	5620	46.8	80.4
COCC(O)c1ccc(-n2cnc3ccc(Nc4ccc(C)nn4)cc32)nc1-n1nc(C#N)cc1C (stereo not drawn) [Example 235, 1-[3-(1-Hydroxy-2-methoxy-ethyl)-6-[6-[(6-methylpyridazin-3-yl)amino]benzimidazol-1-yl]-2-pyridyl]-5-methyl-pyrazole-3-carbonitrile]	647	245	201
Cc1ccc(Nc2ccc3c(c2)ncn3-c2ccc(C(C)O)c(-c3cn(CC4CC4)nc3C)n2)nn1 (stereo not drawn) [Example 266, 1-[2-[1-(Cyclopropylmethyl)-3-methyl-pyrazol-4-yl]-6-[5-[(6-methylpyridazin-3-yl)amino]benzimidazol-1-yl]-3-pyridyl]ethanol; formic acid]	136	1	1.4
Cc1ccc(Nc2ccc3ncn(-c4ccc(C(C)O)c(-n5nc(C)cc5C)n4)c3c2)nn1 (stereo not drawn) [Example 107, 1-[2-(3,5-Dimethylpyrazol-1-yl)-6-[6-[(6-methylpyridazin-3-yl)amino]benzimidazol-1-yl]-3-pyridyl]ethanol; formic acid]	2610	1370	3500
Cc1ccc(Nc2cc3c(cc2OC2COC2)ncn3-c2ccc(C(C)O)c(-n3nc(OC(F)F)cc3C)n2)nn1 (stereo not drawn) [Example 353, 1-[2-[3-(difluoromethoxy)-5-methyl-pyrazol-1-yl]-6-[6-[(6-methylpyridazin-3-yl)amino]-5-(oxetan-3-yloxy)benzimidazol-1-yl]-3-pyridyl]ethanol]	230	60.6	218
Cc1ccc(Nc2ccc3c(c2)ncn3-c2ccc(C(C)O)c(-c3cn(CC4CCC4)nc3C)n2)nn1 (stereo not drawn) [Example 274, 1-[2-[1-(Cyclobutylmethyl)-3-methyl-pyrazol-4-yl]-6-[5-[(6-methylpyridazin-3-yl)amino]benzimidazol-1-yl]-3-pyridyl]ethanol]	120	1.2	1.1
Cc1ccc(Nc2ccc3c(c2)ncn3-c2ccc(C(C)O)c(-c3nc(CC(F)(F)F)nn3C)n2)nn1 (stereo not drawn) [Example 401, 1-[6-[5-[(6-methylpyridazin-3-yl)amino]benzimidazol-1-yl]-2-[2-methyl-5-(2,2,2-trifluoroethyl)-1,2,4-triazol-3-yl]-3-pyridyl]ethanol]	1360	10.4	4.2
COc1cc2ncn(-c3ccc(C(O)C4CC4)c(-c4ccc(F)cc4OC)n3)c2cc1OC (stereo not drawn) [Example 23, Cyclopropyl(6-(5,6-dimethoxy-1H-benzo[d]imidazol-1-yl)-2-(4-fluoro-2-methoxyphenyl)pyridin-3-yl)methanol]	3640	3880	9010

Molecules with a lower IC50 [1], results first:

IC50 [1] [nM]	IC50 [2] [nM]	IC50 [3] [nM]	Compound
84	0.3	0.3	Cc1ccc(Nc2cc3ncn(-c4ccc([C@H](C)O)c(-n5nc(C#N)cc5C)n4)c3cc2F)nn1 [Example 236, 1-[6-[6-Fluoro-5-[(6-methylpyridazin-3-yl)amino]benzimidazol-1-yl]-3-[(1S)-1-hydroxyethyl]-2-pyridyl]-5-methyl-pyrazole-3-carbonitrile]
70	52.4	65.1	Cc1ccc(Nc2cc3c(cc2F)ncn3-c2ccc(CO)c(-n3nc(C#N)cc3C)n2)nn1 [Example 314, 1-[6-[5-fluoro-6-[(6-methylpyridazin-3-yl)amino]benzimidazol-1-yl]-3-(hydroxymethyl)-2-pyridyl]-5-methyl-pyrazole-3-carbonitrile]
55	32.7	195	Cc1cc(C#N)nn1-c1nc(-n2cnc3cc(F)c(Nc4cc5c(nn4)CCC5)cc32)ccc1C(C)O (stereo not drawn) [Example 381, 1-[6-[6-(6,7-dihydro-5~{H}-cyclopenta[c]pyridazin-3-ylamino)-5-fluoro-benzimidazol-1-yl]-3-(1-hydroxyethyl)-2-pyridyl]-5-methyl-pyrazole-3-carbonitrile]
33	11.4	20.4	Cc1cc(C#N)nn1-c1nc(-n2cnc3cc(N4CC[C@H](O)C4)ccc32)ccc1C(C)O (stereo partly drawn) [Example 78, 1-[3-(1-hydroxyethyl)-6-[5-[(3S)-3-hydroxypyrrolidin-1-yl]benzimidazol-1-yl]-2-pyridyl]-5-methyl-pyrazole-3-carbonitrile; formic acid]
28	10.1	15.7	Cc1cc(C#N)nn1-c1nc(-n2cnc3cc(N4CC[C@@H](O)C4)ccc32)ccc1C(C)O (stereo partly drawn) [Example 77, 1-[3-(1-Hydroxyethyl)-6-[5-[(3R)-3-hydroxypyrrolidin-1-yl]benzimidazol-1-yl]-2-pyridyl]-5-methyl-pyrazole-3-carbonitrile; formic acid]
18	12.8	55.4	COc1cc2ncn(-c3ccc(CO)c(-c4cccc(Cl)c4F)n3)c2cc1OC [Example 15, (2-(3-Chloro-2-fluorophenyl)-6-(5,6-dimethoxy-1H-benzo[d]imidazol-1-yl)pyridin-3-yl)methanol]
12	1.8	1.6	Cc1cc(C#N)nn1-c1nc(-n2cnc3cc(Nc4nccnn4)ccc32)ccc1C(C)O (stereo not drawn) [Example 119, 1-[3-(1-Hydroxyethyl)-6-[5-(1,2,4-triazin-3-ylamino)benzimidazol-1-yl]-2-pyridyl]-5-methyl-pyrazole-3-carbonitrile]
10	1	0.3	Cc1ccc(Nc2ccc3c(c2)ncn3-c2ccc(C(C)O)c(-c3cc(C(F)F)ncc3C)n2)nn1 (stereo not drawn) [Example 335, 1-[2-[2-(difluoromethyl)-5-methyl-4-pyridyl]-6-[5-[(6-methlpyridazin-3-yl)amino]benzimidazol-1-yl]-3-pyridyl]ethanol]

Source: patent US20240383875A1, “Benzimidazole Pyridine Derivatives” (Hoffmann-La Roche Inc., priority 2022, published 2024)
